The text below walks through data of PubChem BioAssay (NCI).

“And” between values parts separate entries of the source, which are not always exact repeats. Identical values can stand only once.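 Five concentrations, 48 hours, 96-well plates. At the GI50, growth is halved. TGI is the concentration that stops growth completely.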 A value given as a limit tells only on which side of the number the result lay.

Among the test systems are PC-3 prostate; IGROV1 ovarian; NCI/ADR-RES ovarian; M14 melanoma; UACC-257 melanoma; A549 NSCLC; HT29 colon; OVCAR-3 ovarian; CCRF-CEM leukemia; OVCAR-4 ovarian.
Common to all, as to assay: NCI anticancer screen, dose series, 48 h

Take `Nc1nc(N)c2nc(CNc3ccc(C(=O)NC(CCC(=O)O)C(=O)O)cc3)cnc2n1` (stereo not given): the GI50 was < 0.01 µM in the assay on PC-3 prostate; 0.0651 µM and < 0.01 µM with IGROV1 ovarian; < 0.01 µM with NCI/ADR-RES ovarian; < 0.01 µM in the assay on M14 melanoma; 0.0942 µM and 0.0723 µM with UACC-257 melanoma; 0.032 µM and < 0.01 µM in the assay with A549 NSCLC. Further, the GI50 is < 0.01 µM in the assay on HT29 colon; 0.0695 µM and 0.0295 µM in the assay on OVCAR-3 ovarian; < 0.01 µM in the assay on CCRF-CEM leukemia. For the same compound, the TGI in the assay on PC-3 prostate, with IGROV1 ovarian, in the assay with NCI/ADR-RES ovarian, with M14 melanoma, in the assay with UACC-257 melanoma and with A549 NSCLC was > 100 µM throughout. Moreover, the TGI with HT29 colon, in the assay with OVCAR-3 ovarian, in the assay on CCRF-CEM leukemia and with OVCAR-4 ovarian was > 100 µM throughout.

With `CCCN1CCCC(c2ccc(Nc3nc(Nc4cc(F)ccc4C(N)=O)c4cc[nH]c4n3)c(OC)c2)C1` (stereo not given), the GI50 in the assay with PC-3 prostate is 4.17 µM; with IGROV1 ovarian, 1.47 µM; in the assay on NCI/ADR-RES ovarian, 3.57 µM; with M14 melanoma, 1.02 µM; in the assay on UACC-257 melanoma it was 0.188 µM; with A549 NSCLC it was 0.129 µM. The GI50 in the assay with HT29 colon was 0.0108 µM; in the assay on OVCAR-3 ovarian it was 2.92 µM; with CCRF-CEM leukemia, 1.55 µM; with OVCAR-4 ovarian it was 3.03 µM. Further, the TGI is 9.6 µM with PC-3 prostate; 6.12 µM in the assay with IGROV1 ovarian; 9.92 µM in the assay with NCI/ADR-RES ovarian; 4.8 µM in the assay on M14 melanoma; 4.54 µM in the assay with UACC-257 melanoma; 4.16 µM with A549 NSCLC. In addition, the TGI with HT29 colon was found to be 3.15 µM; in the assay on OVCAR-3 ovarian, 6 µM; in the assay on CCRF-CEM leukemia, 18.4 µM; in the assay with OVCAR-4 ovarian, 6.13 µM.

Take `CC(=O)Nc1ccc(S(=O)(=O)N2C(=O)CCC2C(=O)Nc2ccccc2)cc1` (stereo not given): the GI50 in the assay with PC-3 prostate is 1.08 µM; with IGROV1 ovarian, 2.32 µM; with NCI/ADR-RES ovarian, 1.61 µM; with M14 melanoma, 0.265 µM; in the assay on UACC-257 melanoma, 1.34 µM; in the assay on A549 NSCLC it was 0.721 µM. For the same compound, the GI50 in the assay on HT29 colon was 2.06 µM; with OVCAR-3 ovarian it was 1.75 µM; in the assay on CCRF-CEM leukemia, 0.433 µM; in the assay with OVCAR-4 ovarian, 0.698 µM. Further, the TGI with PC-3 prostate was found to be 15.7 µM; in the assay on IGROV1 ovarian, 26.9 µM; in the assay on NCI/ADR-RES ovarian it was 29.1 µM; in the assay with M14 melanoma, 12.5 µM; in the assay with UACC-257 melanoma, 17.2 µM; in the assay on A549 NSCLC, 19.2 µM. Moreover, the TGI amounted to 19.4 µM with HT29 colon, 11.8 µM with OVCAR-3 ovarian, 14.2 µM in the assay with CCRF-CEM leukemia and 10.8 µM in the assay with OVCAR-4 ovarian.

For the compound `O=c1[nH]c2c(ccc3cnccc32)c2c1CCC2`, the GI50 in the assay on PC-3 prostate is 0.288 µM; with IGROV1 ovarian, 0.258 µM; in the assay with NCI/ADR-RES ovarian it was 0.426 µM; in the assay with M14 melanoma, 0.35 µM; in the assay with UACC-257 melanoma, 0.245 µM; in the assay on A549 NSCLC, 0.5 µM. Moreover, the GI50 was 0.447 µM in the assay on HT29 colon, 0.277 µM in the assay with OVCAR-3 ovarian, 0.248 µM with CCRF-CEM leukemia and 0.726 µM in the assay with OVCAR-4 ovarian. Also, the TGI in the assay on IGROV1 ovarian is 0.923 µM; in the assay with NCI/ADR-RES ovarian, > 100 µM; in the assay on M14 melanoma it was 1.62 µM; in the assay with UACC-257 melanoma, 0.833 µM; in the assay with A549 NSCLC, > 53.5 µM; in the assay on HT29 colon, > 100 µM. Further, the TGI with OVCAR-3 ovarian was 11.7 µM; in the assay with CCRF-CEM leukemia it was 0.708 µM; with OVCAR-4 ovarian, > 100 µM.

As for `Cc1cc(C)c(CNC(=O)c2cc(Cl)c3c(c2C)O[C@@](C)(C2CCC(N(C)C)CC2)O3)c(=O)[nH]1` (stereo not given in full), the GI50 in the assay with PC-3 prostate was 69.7 µM; in the assay on IGROV1 ovarian it was 70.5 µM; with NCI/ADR-RES ovarian, > 100 µM; in the assay with M14 melanoma, 33.8 µM; in the assay with UACC-257 melanoma it was 95.3 µM; with A549 NSCLC it was 71.6 µM. Besides, the GI50 is 33.8 µM in the assay on HT29 colon, > 100 µM in the assay on OVCAR-3 ovarian, 49.9 µM with CCRF-CEM leukemia and 83.9 µM with OVCAR-4 ovarian. Also, the TGI in the assay with PC-3 prostate, with IGROV1 ovarian, in the assay with NCI/ADR-RES ovarian, in the assay on M14 melanoma, in the assay on UACC-257 melanoma and with A549 NSCLC was > 100 µM throughout. The TGI with HT29 colon, with OVCAR-3 ovarian, with CCRF-CEM leukemia and with OVCAR-4 ovarian was > 100 µM each time.

As for `CN1CC[C@H](N(C)C(=O)N2CC(c3cc(F)ccc3F)=C[C@@]2(CO)c2ccccc2)[C@H](F)C1`, the GI50 with PC-3 prostate was 0.0409 µM; in the assay on NCI/ADR-RES ovarian, 0.0205 µM; in the assay with M14 melanoma, 0.00202 µM; with A549 NSCLC, 0.0383 µM; in the assay with HT29 colon it was 0.0411 µM; with OVCAR-3 ovarian, 0.0196 µM. The GI50 in the assay with CCRF-CEM leukemia was 0.017 µM; with OVCAR-4 ovarian it was 20.5 µM. For the same compound, the TGI with PC-3 prostate is > 100 µM; in the assay on IGROV1 ovarian, > 100 µM; in the assay on NCI/ADR-RES ovarian, 1.3 µM; in the assay with M14 melanoma it was 0.00507 µM; in the assay with UACC-257 melanoma it was 41.4 µM; in the assay on A549 NSCLC it was > 100 µM. In addition, the TGI with HT29 colon, in the assay on CCRF-CEM leukemia and with OVCAR-4 ovarian was > 100 µM each time.

Take `COc1cc(C(=O)N[C@@H]2CCCN(C)C2)ccc1Nc1ncc2c(n1)N(C1CCCC1)CC(C)(C)C(=O)N2C`: the GI50 was 0.0646 µM in the assay with PC-3 prostate; 0.396 µM with IGROV1 ovarian; 0.344 µM in the assay on NCI/ADR-RES ovarian; 0.0494 µM in the assay with M14 melanoma; 0.285 µM in the assay with UACC-257 melanoma; 0.0549 µM with A549 NSCLC. For the same compound, the GI50 in the assay on HT29 colon is 0.0363 µM; in the assay on OVCAR-3 ovarian it was 0.0442 µM; in the assay with CCRF-CEM leukemia, 0.0349 µM; in the assay on OVCAR-4 ovarian, 10.8 µM. The TGI came to 19.9 µM with PC-3 prostate; 21.7 µM in the assay with IGROV1 ovarian; 16.2 µM in the assay with NCI/ADR-RES ovarian; 0.769 µM in the assay with M14 melanoma; 2.63 µM in the assay on UACC-257 melanoma; 5.18 µM in the assay with A549 NSCLC. The TGI with HT29 colon was 6.46 µM; with OVCAR-3 ovarian, 16.1 µM; in the assay with CCRF-CEM leukemia, 16.5 µM; in the assay with OVCAR-4 ovarian, 23.4 µM.

Turning to `CCN(CC)CCN1C(=O)c2cccc3cc(N)cc(c23)C1=O`, the TGI was > 100 µM with PC-3 prostate; > 100 µM with IGROV1 ovarian; 58.8 µM in the assay on NCI/ADR-RES ovarian; 32.1 µM in the assay on M14 melanoma; 25.7 µM in the assay with UACC-257 melanoma; > 100 µM with A549 NSCLC. Further, the TGI is 18.1 µM with HT29 colon, 44.3 µM in the assay on OVCAR-3 ovarian, > 100 µM in the assay on CCRF-CEM leukemia and 48.3 µM in the assay with OVCAR-4 ovarian.
